One test concerns the target T1, LRRK2 (Homo sapiens, UniProt Q5S007, G2019S).
T1 construct: purchased Invitrogen PV4882 (lot 567054A)
Put plainly: In Vitro LRRK2 Assay (LabChip 3000, fluorescently-labeled peptide substrate, ATP). Format: biochemical. The settings on record: Table 9; LRRK2 Ki (micromolar); read-out: LRRK2 Ki (KI). Summed up:
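Read-out was LabChip capillary electrophoresis, resolving phospho- from non-phospho-peptide by fluorescence intensity. The kinase reaction combined enzyme, ATP, test compound and labeled peptide (4 μM working dilution) for 2 h in darkness before stop solution. Values were reported as Ki, from a tight-binding model with Et, S and Km, or as IC50 or percent inhibition.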
T1 sequence (Q5S007 whole entry G2019S): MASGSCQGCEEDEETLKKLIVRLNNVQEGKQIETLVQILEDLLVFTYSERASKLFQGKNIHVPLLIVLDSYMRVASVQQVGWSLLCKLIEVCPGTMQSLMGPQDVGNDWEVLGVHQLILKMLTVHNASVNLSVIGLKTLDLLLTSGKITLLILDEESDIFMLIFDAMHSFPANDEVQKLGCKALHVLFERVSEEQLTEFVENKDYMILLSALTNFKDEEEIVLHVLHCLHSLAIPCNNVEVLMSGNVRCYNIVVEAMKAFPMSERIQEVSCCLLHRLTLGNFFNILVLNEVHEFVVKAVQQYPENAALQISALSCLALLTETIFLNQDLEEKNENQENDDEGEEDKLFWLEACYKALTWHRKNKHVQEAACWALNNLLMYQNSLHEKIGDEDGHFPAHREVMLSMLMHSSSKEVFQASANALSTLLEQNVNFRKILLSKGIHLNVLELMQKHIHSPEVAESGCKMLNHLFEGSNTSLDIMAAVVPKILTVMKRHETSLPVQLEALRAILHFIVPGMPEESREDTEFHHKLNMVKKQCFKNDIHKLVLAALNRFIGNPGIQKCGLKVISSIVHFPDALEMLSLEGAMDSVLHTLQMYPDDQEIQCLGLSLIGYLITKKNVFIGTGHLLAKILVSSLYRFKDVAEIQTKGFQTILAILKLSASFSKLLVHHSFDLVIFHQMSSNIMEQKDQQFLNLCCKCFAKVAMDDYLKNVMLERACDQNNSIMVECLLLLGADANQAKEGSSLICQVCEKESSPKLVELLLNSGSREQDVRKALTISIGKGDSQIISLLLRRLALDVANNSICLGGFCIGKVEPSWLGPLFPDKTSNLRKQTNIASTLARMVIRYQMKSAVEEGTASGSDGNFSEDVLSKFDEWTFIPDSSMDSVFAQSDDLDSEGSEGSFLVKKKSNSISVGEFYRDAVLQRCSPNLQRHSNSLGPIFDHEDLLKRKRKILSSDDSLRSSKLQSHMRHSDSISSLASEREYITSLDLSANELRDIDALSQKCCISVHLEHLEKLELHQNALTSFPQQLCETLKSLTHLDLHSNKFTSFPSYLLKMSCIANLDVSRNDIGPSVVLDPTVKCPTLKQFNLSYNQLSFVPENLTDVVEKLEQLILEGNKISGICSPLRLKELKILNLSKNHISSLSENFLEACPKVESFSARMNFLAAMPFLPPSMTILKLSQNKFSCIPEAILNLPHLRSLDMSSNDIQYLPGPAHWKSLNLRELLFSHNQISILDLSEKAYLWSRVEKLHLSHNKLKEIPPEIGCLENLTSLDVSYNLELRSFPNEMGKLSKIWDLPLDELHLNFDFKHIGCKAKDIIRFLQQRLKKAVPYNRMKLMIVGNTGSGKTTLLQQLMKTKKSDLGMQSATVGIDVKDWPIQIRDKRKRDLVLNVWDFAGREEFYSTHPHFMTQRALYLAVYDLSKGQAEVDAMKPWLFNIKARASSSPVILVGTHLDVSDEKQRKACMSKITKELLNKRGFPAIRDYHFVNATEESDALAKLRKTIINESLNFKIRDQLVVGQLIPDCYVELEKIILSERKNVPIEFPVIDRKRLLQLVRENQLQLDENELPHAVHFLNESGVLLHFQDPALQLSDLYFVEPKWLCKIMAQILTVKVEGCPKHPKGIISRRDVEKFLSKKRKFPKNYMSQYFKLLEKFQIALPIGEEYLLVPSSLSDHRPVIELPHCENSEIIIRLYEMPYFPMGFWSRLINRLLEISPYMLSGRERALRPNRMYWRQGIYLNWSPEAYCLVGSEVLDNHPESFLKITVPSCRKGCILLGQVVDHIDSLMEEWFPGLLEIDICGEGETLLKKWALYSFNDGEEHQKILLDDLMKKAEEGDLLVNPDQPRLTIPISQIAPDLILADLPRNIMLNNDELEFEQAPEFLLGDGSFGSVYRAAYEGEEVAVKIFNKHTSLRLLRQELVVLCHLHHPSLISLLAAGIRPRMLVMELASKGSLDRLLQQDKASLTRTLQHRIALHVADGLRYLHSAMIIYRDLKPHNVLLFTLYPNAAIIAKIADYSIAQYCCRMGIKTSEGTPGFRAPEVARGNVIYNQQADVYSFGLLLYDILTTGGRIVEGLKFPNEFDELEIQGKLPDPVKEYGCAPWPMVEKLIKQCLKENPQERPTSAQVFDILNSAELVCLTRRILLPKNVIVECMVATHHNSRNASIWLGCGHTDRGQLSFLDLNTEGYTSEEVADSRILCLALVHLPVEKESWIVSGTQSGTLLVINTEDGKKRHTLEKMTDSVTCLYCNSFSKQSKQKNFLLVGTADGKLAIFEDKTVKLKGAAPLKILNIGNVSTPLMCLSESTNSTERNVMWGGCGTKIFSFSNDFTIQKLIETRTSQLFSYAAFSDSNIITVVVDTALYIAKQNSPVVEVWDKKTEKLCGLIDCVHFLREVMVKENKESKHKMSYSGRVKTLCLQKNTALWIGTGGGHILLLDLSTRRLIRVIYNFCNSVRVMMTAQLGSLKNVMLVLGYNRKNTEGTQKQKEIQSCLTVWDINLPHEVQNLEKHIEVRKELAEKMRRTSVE
For the compound `CNc1nc(Nc2cn(C3CCC(F)(F)CC3)nc2C)ncc1C#N` [Example 392, 2-[1-(4,4-Difluoro-cyclohexyl)-3-methyl-1H-pyrazol-4-ylamino]-4-methylamino-pyrimidine-5-carbonitrile], the Ki was 266 nM.

As to `CNc1nc(Nc2cnn(C3CCC(F)(F)CC3)c2C)ncc1C#N` [Example 381, 2-(1-(4,4-difluorocyclohexyl)-5-methyl-1H-pyrazol-4-ylamino)-4-(methylamino) pyrimidine-5-carbonitrile], the Ki is 11 nM.

In the case of `CNc1nc(Nc2cnn(C(F)F)c2C)ncc1C#N` [Example 384, 2-(1-Difluoromethyl-5-methyl-1H-pyrazol-4-ylamino)-4-methylamino-pyrimidine-5-carbonitrile], the inhibitory constant (Ki) was determined as 19.1 nM.

Consider `CNc1nc(Nc2cn(CC3CC3)nc2C)ncc1C#N` [Example 380, 2-(1-(cyclopropylmethyl)-3-methyl-1H-ylamino)-4-(methylamino) pyrimidine-5-carbonitrile], for which the Ki came out at 45 nM.

On to `CNc1nc(Nc2cnn(-c3ccc(F)cc3)c2C)ncc1C#N` [Example 386, 2-[1-(4-Fluoro-phenyl)-5-methyl-1H-pyrazol-4-ylamino]-4-methylamino-pyrimidine-5-carbonitrile], for which the Ki stood at 95.9 nM.

The same test, now with this note: Table 10; LRRK2 Ki (micromolar); read-out: LRRK2 Ki (KI).
With `CNc1nc(Nc2cn([C@@H](C)C(=O)N3CCCC3)nc2C)ncc1C(F)(F)F` [Example 405, (S)-2-(3-methyl-4 (4-(methylamino)-5-(trifluoromethyl)pyrimidin-2-ylamino)-1H-pyrazol-1-yl)-1-(pyrrolidin-1-yl)propan-1-one], the inhibition constant Ki was 22 nM.

`CNc1nc(Nc2cnn(C(C)(C)C(=O)N(C)C)c2C)ncc1C(F)(F)F` [Example 399, N,N,2-trimethyl-2-(5-methyl-4-(4-(methylamino)-5-(trifluoromethyl)pyrimidin-2-ylamino)-1H-pyrazol-1-yl)propanamide]: the Ki stood at 314 nM.

For `CNc1nc(Nc2cnn(C3(C#N)CCC3)c2C)ncc1C(F)(F)F` [Example 446, 1-[5-Methyl-4-(4-methylamino-5-trifluoromethyl-pyrimidin-2-ylamino)-pyrazol-1-yl]-cyclobutane-carbonitrile], the Ki was found to be 2.4 nM.

The same test, now with this note: read-out: LRRK2 Ki (KI), Table 7.
In the case of `COc1nc(Nc2cnn(C3CCOCC3)c2C)ncc1Cl` [Example 80, (5-Chloro-4-methoxy-pyrimidin-2-yl)-[5-methyl-1-(tetrahydro-pyran-4-yl)-1H-pyrazol-4-yl]-amine], the Ki came out at 66.3 nM.

On to `COCCn1ncc(Nc2ncc(Cl)c(OC)n2)c1C` [Example 20, 5-chloro-4-methoxy-N-(1-(2-methoxyethyl)-5-methyl-1H-pyrazol-4-yl)pyrimidin-2-amine], for which the inhibitory constant (Ki) stood at 19 nM.

As for `CCNc1nc(Nc2ccn(C)n2)ncc1C(F)(F)F` [Example 61, N^4-ethyl-N^2-(1-methyl-1H-pyrazol-3-yl)-5-(trifluoromethyl) pyrimidine-2,4-diamine], the inhibition constant (Ki) was determined as 4.6 nM.

With `Cc1c(Nc2ncc(Cl)c(OCC(F)F)n2)cnn1C` [Example 63, 5-chloro-4-(2,2-difluoroethoxy)-N-(1,5-dimethyl-1H-pyrazol-4-yl)pyrimidin-2-amine], the Ki turned out to be 24 nM.

Consider `CC(C)n1cc(Nc2ncc(Cl)c(OC3CCOCC3)n2)cn1` [Example 11, 5-Chloro-N-(1-isopropyl-1H-pyrazol-4-yl)-4-(tetrahydro-2H-pyran-4-yloxy)pyrimidin-2-amine], for which the Ki was found to be 33 nM.

As for `CNc1nc(Nc2cn(C(C)C)nc2C)ncc1Cl` [Example 31, 5-Chloro-N^2-(1-isopropyl-3-methyl-1H-pyrazol-4-yl)-N^4-methylpyrimidine-2,4-diamine], the Ki was determined as 12 nM.

Staying with this test, now noted: read-out: LRRK2 Ki (KI), Table 8.
With `CNc1nc(Nc2cnn(S(C)(=O)=O)c2C)ncc1C(F)(F)F` [Example 195, N4-methyl-N2-(5-methyl-1-(methylsulfonyl)-1H-pyrazol-4-yl)-5-(trifluoromethyl) pyrimidine-2,4-diamine], the Ki came to 10 nM.

Consider `CNc1nc(Nc2cn(-c3ccccn3)nc2C)ncc1C(F)(F)F` [Example 117, N4-methyl-N2-(3-methyl-1-(pyridin-2-yl)-1H-pyrazol-4-yl)-5-(trifluoromethyl) pyrimidine-2,4-diamine], for which the inhibition constant (Ki) was determined as 6.7 nM.

As to `CNc1nc(Nc2cn(C)nc2C2CCC2)ncc1C(F)(F)F` [Example 228, N2-(3-cyclobutyl-1-methyl-1H-pyrazol-4-yl)-N4-methyl-5-(trifluoromethyl) pyrimidine-2,4-diamine], the Ki was determined as 3.4 nM.

On to `CNc1nc(Nc2cnn(C3CCN(C)CC3F)c2Cl)ncc1C(F)(F)F` (centres unmarked) [Example 241, N2-(5-chloro-1-(3-fluoro-1-methylpiperidin-4-yl)-1H-pyrazol-4-yl)-N4-methyl-5-(trifluoromethyl) pyrimidine-2,4-diamine], for which the inhibitory constant (Ki) was 1.8 nM.

Consider `Cc1c(Nc2ncc(C(F)(F)F)c(NC3CC3)n2)cnn1S(C)(=O)=O` [Example 301, N4-Cyclopropyl-N2-(1-methanesulfonyl-5-methyl-1H-pyrazol-4-yl)-5-trifluoromethyl-pyrimidine-2,4-diamine], for which the Ki amounted to 2.1 nM.

Take `CNc1nc(Nc2cnn(C3COC3)c2Cl)ncc1C(F)(F)F` [Example 168, N2-(5-chloro-1-(oxetan-3-yl)-1H-pyrazol-4-yl)-N4-methyl-5-(trifluoromethyl) pyrimidine-2,4-diamine]: the inhibitory constant (Ki) was found to be 9.5 nM.

`CCNc1nc(Nc2cn(-c3ccc(S(=O)(=O)C4CC4)cc3)nc2C)ncc1C(F)(F)F` [Example 264, N2-[1-(4-Cyclopropane-sulfonyl-phenyl)-3-methyl-1H-pyrazol-4-yl]-N4-ethyl-5-trifluoromethyl-pyrimidine-2,4-diamine]: the Ki is 3.2 nM.

Regarding `CNc1nc(Nc2cn(C3CCN(C4COC4)CC3)nc2C)ncc1C(F)(F)F` [Example 131, N4-methyl-N2-(3-methyl-1-(1-(oxetan-3-yl)piperidin-4-yl)-1H-pyrazol-4-yl)-5-(trifluoromethyl) pyrimidine-2,4-diamine], the Ki came to 37.4 nM.

Turning to `CNc1nc(Nc2cnn(Cc3cccnn3)c2C)ncc1C(F)(F)F` [Example 309, N4-Methyl-N2-(5-methyl-1-pyridazin-3-ylmethyl-1H-pyrazol-4-yl)-5-trifluoromethyl-pyrimidine-2,4-diamine], the Ki turned out to be 2.8 nM.

On to `CNc1nc(Nc2cnn(CC3(C)COC3)c2Cl)ncc1C(F)(F)F` [Example 180, N2-(5-chloro-1-((3-methyloxetan-3-yl)methyl)-1H-pyrazol-4-yl)-N4-methyl-5-(trifluoromethyl) pyrimidine-2,4-diamine], for which the inhibition constant Ki worked out at 5.6 nM.

`CNc1nc(Nc2cnn(C)c2C2CCC2)ncc1C(F)(F)F` [Example 229, N2-(5-cyclobutyl-1-methyl-1H-pyrazol-4-yl)-N4-methyl-5-(trifluoromethyl) pyrimidine-2,4-diamine]: the Ki came to 11 nM.

As for `CCNc1nc(Nc2cnn(CC(C)(C)C#N)c2Cl)ncc1C(F)(F)F` [Example 318, 3-[5-Chloro-4-(4-ethylamino-5-trifluoromethyl-pyrimidin-2-ylamino)-pyrazol-1-yl]-2,2-dimethyl-propionitrile], the Ki was 0.7 nM.

For `CCNc1nc(Nc2cn(CC(C)(C)O)nc2C2CC2)ncc1C(F)(F)F` [Example 236, 1-(3-cyclopropyl-4-(4-(ethylamino)-5-(trifluoromethyl)pyrimidin-2-ylamino)-1H-pyrazol-1-yl)-2-methylpropan-2-ol], the Ki worked out at 1.5 nM.

For the compound `CNc1nc(Nc2cnn(-c3ccc(S(C)(=O)=O)cc3)c2C)ncc1C(F)(F)F` [Example 125, N4-methyl-N2-(5-methyl-1-(4-(methylsulfonyl)phenyl)-1H-pyrazol-4-yl)-5-(trifluoromethyl) pyrimidine-2,4-diamine], the Ki stood at 4.7 nM.

Turning to `CNc1nc(Nc2cnn(Cc3ncccn3)c2C)ncc1C(F)(F)F` [Example 315, N4-Methyl-N2-(5-methyl-1-pyrimidin-2-ylmethyl-1H-pyrazol-4-yl)-5-trifluoromethyl-pyrimidine-2,4-diamine], the Ki came to 1.4 nM.

For the compound `CCNc1nc(Nc2cnn(C3CCN(CCOC)CC3)c2C)ncc1C(F)(F)F` [Example 283, N4-Ethyl-N2-{1-[1-(2-methoxy-ethyl)-piperidin-4-yl]-5-methyl-1H-pyrazol-4-yl}-5-trifluoromethyl-pyrimidine-2,4-diamine], the Ki turned out to be 2 nM.

Take `CNc1nc(Nc2cnn(C3CCS(=O)(=O)CC3)c2C)ncc1C(F)(F)F` [Example 196, N4-methyl-N2-(5-methyl-1-(tetrahydro-2H-1,1-dioxo-thiopyran-4-yl)-1H-pyrazol-4-yl)-5-(trifluoromethyl) pyrimidine-2,4-diamine]: the inhibitory constant (Ki) worked out at 47 nM.

With `CNc1nc(Nc2cnn(CC3(C)COC3)c2C)ncc1C(F)(F)F` [Example 179, N4-methyl-N2-(5-methyl-1-((3-methyloxetan-3-yl)methyl)-1H-pyrazol-4-yl)-5-(trifluoromethyl) pyrimidine-2,4-diamine], the Ki is 9 nM.

For the compound `CCNc1nc(Nc2cn(C3CCN(CCOC)CC3)nc2C)ncc1C(F)(F)F` [Example 282, N4-Ethyl-N2-{1-[1-(2-methoxy-ethyl)-piperidin-4-yl]-3-methyl-1H-pyrazol-4-yl}-5-trifluoromethyl-pyrimidine-2,4-diamine], the Ki stood at 5.4 nM.

Take `CCNc1nc(Nc2cnn(CC(C)(C)O)c2C)ncc1C(F)(F)F` [Example 296, 1-[4-(4-Ethylamino-5-trifluoromethyl-pyrimidin-2-ylamino)-5-methyl-pyrazol-1-yl]-2-methyl-propan-2-ol]: the inhibition constant (Ki) amounted to 2.3 nM.

As for `CCNc1nc(Nc2cn(C3CN(C4COC4)C3)nc2C)ncc1C(F)(F)F` [Example 182, N4-ethyl-N2-(3-methyl-1-(1-(oxetan-3-yl)azetidin-3-yl)-1H-pyrazol-4-yl)-5-(trifluoromethyl) pyrimidine-2,4-diamine], the Ki was found to be 1.5 nM.

Source of the values: patent publication US8815882B2, “Pyrazole aminopyrimidine derivatives as LRRK2 modulators” (Genentech, Inc., priority 2010, dated 2014).
